Test results taken from PubChem BioAssay AID1845208 (Molecular Pharmacology Branch, DTP, NCI, 2023).
pIC50: −log10 of the molar value.

System: NCI-H196 SCLC complex tumor spheroid viability
Assay: Anticancer human tumor NCI-H196 cell line growth inhibition;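 further: spheroids exposed to compounds for 7 days before readout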;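 on viability, T/C: 100% = DMSO vehicle control wells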
Conditions: for pIC50: curve of first compound; for viability, T/C: stronger effect = lower value
Method in brief: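 Single agents and combinations were tested on spheroids built from tumor cells plus HUVEC and hMSC, at half-log dilutions starting at or near clinical Cmax, else 10 microM; final DMSO 0.25% (v/v).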

[1] = second compound 1 µM, first compound 0.0316 µM
[2] = second compound 1 µM, first compound 0.1 µM
[3] = second compound 1 µM, first compound 0.316 µM
[4] = second compound 1 µM, first compound 1 µM
[5] = second compound 1 µM, first compound 3.16 µM
[6] = second compound 1 µM, first compound 10 µM
[7] = second compound 3.16 µM, first compound 0.0316 µM
[8] = second compound 3.16 µM, first compound 0.1 µM
[9] = second compound 3.16 µM, first compound 0.316 µM
[10] = second compound 3.16 µM, first compound 1 µM
[11] = second compound 3.16 µM, first compound 3.16 µM
[12] = second compound 3.16 µM, first compound 10 µM
[13] = second compound 10 µM, first compound 0.0316 µM
[14] = second compound 10 µM, first compound 0.1 µM
[15] = second compound 10 µM, first compound 0.316 µM
[16] = second compound 10 µM, first compound 1 µM
[17] = second compound 10 µM, first compound 3.16 µM
[18] = second compound 10 µM, first compound 10 µM
[19] = second compound 31.6 µM, first compound 0.0316 µM
[20] = second compound 31.6 µM, first compound 0.1 µM
[21] = second compound 31.6 µM, first compound 0.316 µM
[22] = second compound 31.6 µM, first compound 1 µM
[23] = second compound 31.6 µM, first compound 3.16 µM
[24] = second compound 31.6 µM, first compound 10 µM
[25] = second compound 100 µM, first compound 0.0316 µM
[26] = second compound 100 µM, first compound 0.1 µM
[27] = second compound 100 µM, first compound 0.316 µM
[28] = second compound 100 µM, first compound 1 µM
[29] = second compound 100 µM, first compound 3.16 µM
[30] = second compound 100 µM, first compound 10 µM

Row | SMILES | pIC50 (second compound 1 µM) | pIC50 (second compound 3.16 µM) | pIC50 (second compound 10 µM) | pIC50 (second compound 31.6 µM) | pIC50 (second compound 100 µM) | viability, T/C [1] [%] | viability, T/C [2] [%] | viability, T/C [3] [%] | viability, T/C [4] [%] | viability, T/C [5] [%] | viability, T/C [6] [%] | viability, T/C [7] [%] | viability, T/C [8] [%] | viability, T/C [9] [%] | viability, T/C [10] [%] | viability, T/C [11] [%] | viability, T/C [12] [%] | viability, T/C [13] [%] | viability, T/C [14] [%] | viability, T/C [15] [%] | other results
1 | CC(C)n1c(=O)n(C)c2cnc3cc(F)c(-c4ccc(OCCCN5CCCCC5)nc4)cc3c21 + Cn1nnc2c(C(N)=O)ncn2c1=O | < 5.00 | < 5.00 | < 5.00 | < 5.00 | < 5.00 | 93.1 | 102 | 91.8 | 99.7 | 101 | 93.6 | 94.3 | 102 | 101 | 119 | 100 | 94.2 | 90.8 | 97.7 | 98.4 | viability, T/C [16]: 106%; viability, T/C [17]: 106%; viability, T/C [18]: 95%; viability, T/C [19]: 103%; viability, T/C [20]: 103%; viability, T/C [21]: 101%; viability, T/C [22]: 104%; viability, T/C [23]: 116%; viability, T/C [24]: 90.8%; viability, T/C [25]: 103%; viability, T/C [26]: 96.2%; viability, T/C [27]: 98.3%; viability, T/C [28]: 100%; viability, T/C [29]: 95.8%; viability, T/C [30]: 82.1%
2 | COc1ccc([C@@H](O)c2cc(-c3ncnc4cc(N5CCOCC5)ccc34)c(F)cc2Cl)nn1 + Cn1nnc2c(C(N)=O)ncn2c1=O | < 5.00 | < 5.00 | < 5.00 | < 5.00 | < 5.00 | 93.8 | 97.1 | 87.3 | 73.5 | 65.6 | 52 | 98.8 | 92.5 | 96.7 | 82.5 | 68.9 | 52.9 | 108 | 97.3 | 96.5 | viability, T/C [16]: 80.1%; viability, T/C [17]: 63.7%; viability, T/C [18]: 55.5%; viability, T/C [19]: 109%; viability, T/C [20]: 101%; viability, T/C [21]: 92.5%; viability, T/C [22]: 80.1%; viability, T/C [23]: 71.4%; viability, T/C [24]: 59.3%; viability, T/C [25]: 105%; viability, T/C [26]: 99.9%; viability, T/C [27]: 95.7%; viability, T/C [28]: 91.2%; viability, T/C [29]: 70.3%; viability, T/C [30]: 57%
